Measurements taken from patent publication US20060140858A1, “Drug pre-targeting by means of bi-specific antibodies and hapten constructs comprising a carrier peptide and the active agent(s)” (Immunomedics, Inc., priority 2002, published 2006).
Read-outs that look alike come from different tables or passages of the source. *1 amine or outer side, *2 acyl side, *3 side chain or, on linkers, in order; H or OH if unused. Where a SMILES comes first, the peptide text is derived from it. Side-chain parts run from the residue outwards. [ ]: non-standard residue; d: D form. The star is where a group is joined. DOTA = O=C(O)CN1CCN(CC(=O)O)CCN(CC(=O)*)CCN(CC(=O)O)CC1; NH(2-(imidazol-4-yl)ethyl) = c1ncc(CCN*)[nH]1; Suc = O=C(CCC(=O)[*:2])[*:1]

Key:
[1] = format: in vitro ADME, mouse
Description: The peptide was monitored as described above by HPLC.

GW-39 [2] = system: GW-39; set-up: species or system nude mice; settings: mouse, in vivo
Description: (§1) Female NCr nude mice Charles River Laboratories, Inc., Fredrick Md. or Taconic, Germantown, N.Y.) approximately 6 weeks of age were implanted subcutaneously with 0.2 ml of this suspension. Two to three weeks after implantation of tumors, animals were injected with the radiolabeled peptide alone, or for pretargeting, with the bsMAb followed 1 to 2 days later with the radiolabeled peptide. […] At the designated times after the peptide injection, animals were anesthetized, bled by cardiac puncture, and then euthanized prior to necropsy. Tissues were removed, weighed and counted by gamma scintillation using appropriate windows for each radionuclide along with standards prepared from the injected materials. When dual isotope counting was used, appropriate backscatter correction was made. GI tissues (stomach, small intestine and large intestine were weighed and counted with their contents. Data are expressed as the percent injected dose per gram tissue (% ID/g) and the ratio of the percentages in the tumor to the normal tissues (T/NT). All values presented in the tables and figures represent the mean and standard deviation of the calculated values with the number of animals used for each study provided therein.

GW-39 [3] = assay: Comparison of ^177Lu-IMP-241 and ^111In-IMP-241 pretargeting using hMN-14 × m679 F(ab′)2 bsMAb (24 h bsMAb clearance); format: in vivo, nude mice; settings: listed as 111In-IMP-241
Description: as §1

in vivo = assay: in vivo; set-up: species or system nude mice; settings: female, NCr nude, mouse, total radioactivity, % ID/g
Description: as §1, with “GW-39, a CEA-producing human colon cancer cell line (See, Goldenberg, D. M. and Hansen, H. […] Female” for “Female”, “suspension.” for “suspension. Two to three weeks after implantation of tumors, animals were injected with the radiolabeled peptide alone, or for pretargeting, with the bsMAb followed 1 to 2 days later with the radiolabeled peptide.”

GW-39 [4] = assay: in vivo; set-up: species or system nude mice; settings: mouse
Description: as §1, with “GW-39, a CEA-producing human colon cancer cell line (See, Goldenberg, D. M. and Hansen, H. […] Female” for “Female”, “suspension.” for “suspension. Two to three weeks after implantation of tumors, animals were injected with the radiolabeled peptide alone, or for pretargeting, with the bsMAb followed 1 to 2 days later with the radiolabeled peptide.”

[5] = Comparison of ^177Lu-IMP-241 and ^111In-IMP-241 pretargeting using hMN-14 × m679 F(ab′)2 bsMAb (24 h bsMAb clearance); format: in vivo, nude mice; settings: female, NCr nude, mouse, iv, total radioactivity, read-out: Percent Injected Dose Per Gram; for tissue uptake at 3 h: 3 hour after peptide; for tissue uptake at 24 h: 24 hour after peptide
Description: as §1

NC(=O)[C@H](CCCCNC(=O)CNC(=O)CCC(=O)NCCc1cnc[nH]1)NC(=O)[C@@H](Cc1ccc(O)cc1)NC(=O)[C@H](CCCCNC(=O)CNC(=O)CCC(=O)NCCc1cnc[nH]1)NC(=O)[C@H](Cc1ccccc1)NC(=O)CN1CCN(CC(=O)O)CCN(CC(=O)O)CCN(CC(=O)O)CC1 [IMP 241, DOTA-Phe-Lys(HSG)-D-Tys-Lys(HSG)-NH2] ({DOTA}-FK([Gly-Suc-NH(2-(imidazol-4-yl)ethyl)])[dY]K([Gly-Suc-NH(2-(imidazol-4-yl)ethyl)])-NH2)
decomposed in mouse serum [1]: ~5% | increase of tumor accretion by pretargeting compared to the peptide alone (GW-39 [2]): ~100 fold | Percent Injected Dose Per Gram (GW-39 [3]; Blood, 3 hour after peptide): 1.87 ± 0.97 % ID/g | Percent Injected Dose Per Gram (GW-39 [3]; Kidney, 3 hour after peptide): 3.00 ± 0.87 % ID/g | Percent Injected Dose Per Gram (GW-39 [3]; Liver, 3 hour after peptide): 0.57 ± 0.24 % ID/g | Percent Injected Dose Per Gram (GW-39 [3]; Lungs, 3 hour after peptide): 0.81 ± 0.33 % ID/g | Percent Injected Dose Per Gram (GW-39 [3]; Lungs, 24 hour after peptide): 0.24 ± 0.07 % ID/g | Percent Injected Dose Per Gram (GW-39 [3]; Tumor, 3 hour after peptide): 8.76 ± 2.31 % ID/g | Percent Injected Dose Per Gram (GW-39 [3]; Tumor, 24 hour after peptide): 2.54 ± 1.04 % ID/g

NC(=O)[C@H](CCCCNC(=O)CNC(=O)CCC(=O)NCCc1cnc[nH]1)NC(=O)[C@@H](Cc1ccc(O)cc1)NC(=O)[C@H](CCCCNC(=O)CNC(=O)CCC(=O)NCCc1cnc[nH]1)NC(=O)[C@H](Cc1ccccc1)NC(=O)CN1CCN(CC(=O)O)CCN(CC(=O)O)CCN(CC(=O)O)CC1 [^177Lu-IMP-241, metal not drawn] ({DOTA}-FK([Gly-Suc-NH(2-(imidazol-4-yl)ethyl)])[dY]K([Gly-Suc-NH(2-(imidazol-4-yl)ethyl)])-NH2)
tissue uptake at 48 h (in vivo): 0.94 ± 0.2 %ID/g | decrease in kidneys compared to the level seen at 24 h (GW-39 [4]): ~45% | tissue uptake at 3 h ([5]; blood, Blood): 1.48 ± 0.19 %ID/g | tissue uptake at 24 h ([5]; blood, Blood): 0.36 ± 0.05 %ID/g | tissue uptake at 3 h ([5]; kidney, Kidney): 3.61 ± 0.43 %ID/g | tissue uptake at 24 h ([5]; kidney, Kidney): 0.18 ± 0.03 %ID/g | tissue uptake at 3 h ([5]; liver, Liver): 0.46 ± 0.08 %ID/g | tissue uptake at 24 h ([5]; liver, Liver): 0.17 ± 0.04 %ID/g | tissue uptake at 3 h ([5]; lungs, Lungs): 0.64 ± 0.12 %ID/g | tissue uptake at 24 h ([5]; lungs, Lungs): 0.17 ± 0.02 %ID/g | tissue uptake at 3 h ([5]; spleen, Spleen): 0.36 ± 0.04 %ID/g | tissue uptake at 24 h ([5]; spleen, Spleen): 0.29 ± 0.07 %ID/g | tissue uptake at 3 h ([5]; tumor, Tumor): 9.71 ± 2.49 %ID/g | tissue uptake at 24 h ([5]; tumor, Tumor): 2.59 ± 0.3 %ID/g
